# Reference: US10876076B2, “Detergents and cleaning agents having improved performance” (Henkel AG & Co. KGaA, priority 2016, dated 2020)
# Test: Water solubility
# Type: physicochemical
# Conditions: deionized water, pH 7, room temperature
# Method: [drawing 6] 2,3-dihydroxyterephthalic acid dimethyl ester (12.89 g, 57 mmol) from step a) was suspended in N,N-dimethylethylenediamine (72.8 g, 809 mmol) and the reaction mixture was stirred for 24 hours at 100° C. After adding 100 ml of dimethylformamide (DMF), the excess of N,N-dimethylethylenediamine, together with the DMF, was removed by distillation. The solid obtained was washed 2 times using 300 ml of ethyl acetate, subsequently recrystallized from methanol/ethyl acetate (1:2.5) and dried in a vacuum. 9.6 g of 2,3-dihydroxy-N,N′-bis(2-(dimethylamino)ethyl)terephthaldiamide was obtained as a beige solid. The water solubility thereof (deionized water, pH 7, room temperature) was over 70 g/l.
smiles,measurement,value
"CN(C)CCNC(=O)c1ccc(C(=O)NCCN(C)C)c(O)c1O [S1, 2,3-dihydroxy-N,N′-bis(2-(dimethylamino)ethyl) terephthaldiamide]",solubility,> 70 mg/mL
